Literature values, collected in article PMC12304352, “Optimization of a GMP-compliant automated one-pot synthesis of Al[^18F]F-NOTA-Ubiquicidin29 − 41 for bacterial infection imaging by PET/CT” (EJNMMI Radiopharmacy and Chemistry, 2025).

System: methicillin-resistant S. aureus (MRSA)
Conditions: injected intravenously, ref Brouwer et al. [2006]
Source text: Ubiquicidin (UBI), a cationic antimicrobial peptide fragment, has emerged as a promising agent for infection imaging due to its selective binding to anionic bacterial membranes (Ferro-Flores et al. [2016]). […] Another UBI-derived peptide (UBI29 − 41) radiolabeled with technetium-99m, was used as a probe for real-time, whole- ...

In the case of “UBI31 − 38: synthetic ubiquicidin derivative composed of only eight amino acids (KVDENGKI; Small ribosomal subunit protein eS31; UniProt P62979 107-114, looked up, fragment)”, the “Efficacy against MRSA in a mouse infection model” value is listed as “somewhat reduced activity”.
